Reference: patent publication US20050153303A1, “Method of mutagenic chain reaction” (priority 2003, published 2005)
“And” between values parts separate entries of the source, which are not always exact repeats. Equal values may be shown once. Read-outs that look alike come from different tables or passages of the source.

Legend:
Ventr (exo-) polymerase = target: T1, Ventr (exo-) polymerase (Thermococcus litoralis, UniProt P30317, D141A/DEL1082-1471/DEL495-1032/E143A); assay type: biochemical; conditions: for Amplification yield (% of C+): Ventr (exo-), 0.5 mM MnCl2
T1 construct: purchased New England Biolabs
Protocol: (§1) Control PCR condition: 2 units of Vent exo^−DNA polymerase were used in a 50 μL reaction volume containing 200 μM of each dNTPs, 10mM KCl, 10mM (NH4)2SO4, […] pH 8.8, 2mM MgSO4, 0.1% Triton™ X-100, 0.2 μM of each primers and 10ng of plasmid DNA. PCR were performed in a GeneAmp PCR system 9700 (Perkin-Elmer) as follows: 5 min at 95° C. (first denaturation), followed by 30 cycles of polymerisation [30 s at 95° C. (denaturation), 30 s at 65° C. (annealing) , 2 min at 72° C. (polymerisation)].
(§2) When a modified dNTPs ratio was used, fmal concentrations were 200 μM for dATP and dTTP and 800 μM for dCTP and dGTP.
Enzymatic activity of DNA polymerases has been determined by ethidium bromide staining of 1% agarose gel. Band intensity of 2 μL aliquots of amplicon issued from mutagenic PCR were compared to the intensity of bands obtained from several dilutions of standard PCR.
In order to assess the impact of the chemical stress induced by alcohols and urea on PCR, we measured the amplification yield was measured and compared it to that of a standard PCR. The size of a library generated by error-prone PCR is proportional to the amplification yield, therefore it is of a paramount importance to maintain the amplification yield as high as possible. Concentration of alcohol leading to a reduction in amplification yield was detected were chosen to determine their impact on amplified sequences. Such concentrations were defined as “critical” concentration of alcohol.

[1] = target: T2, Ventr (exo-) DNA polymerase (Thermococcus litoralis, UniProt P30317, D141A/DEL1082-1471/DEL495-1032/E143A); experiment: PCR measuring maximal length of amplification; assay type: biochemical
T2 construct: purchased New England Biolabs
Protocol: (§3) 100ng of genomic DNA from Actinobacillus pleuropneumoniae was used as template. PCR cycles were as follows: 7 min at 95° C., then 30 cycles of polymerisation [45 s at 95° C., 45 s at 53° C., 1 min at 72°^C].

Taq polymerase = Taq polymerase (Thermus aquaticus, UniProt P19821); assay type: biochemical
[2] = target: T2, Ventr (exo-) DNA polymerase; assay type: biochemical
Protocol: The template used for PCR is the gene coding for MB-1 His (384 bp) (Grundy J. et al., (1998) Journal of Biotechnology, 63:9-15) cloned in the 6.6kb pMAL-c2 vector (New England Biolabs, cat no. M0257S). The template was obtained by plasmid purification of E. coli with XL-1 Blue (Stratagene) Miniprep protocol (Qiagen) and quantified using UV spectrometry.
as §1, §2
pMAL-c2 vector (New England Biolabs) was digested with SacI and HindIII endonucleases (New England Biolabs) and gel purified (1% agarose) using Qiaex gel extraction kit (Qiagen) and Agarose A from LAB MAT. The 384 bp PCR products were also gel purified. […] The purified products were then concatenated in a kination/ligation using T4 Polynucleotide kinase and T4 DNA ligase (New England Biolabs) for 3 hours at room temperature followed by a restriction digestion using SacI and HindIII endonucleases for 5 hours at 37° C. Then, the digested PCR products were purified using PCR purification kit (Qiagen) and ligated with pMAL-c2 vector using T4 DNA ligase at 16° C. overnight.
5 μL of ligation product mixed with 50 μL of E. coli XL-1 Blue hypercompetent cells were incubated on ice for 30 min, heatshocked at 42° C. for 45 sec and re-incubated on ice for 2 min. Then, 1mL of SOC medium was added and the mixture was incubated for 1 hour at 37° C. with shaking. Transformed Cells were then selected on LB agar plates containing 100 μg/mL ampicillin.
Plasmids from transformant colonies were purified with Qiaprep Spin miniprep kit (Qiagen) and digested with SacI/HindIII to confirm the presence of the 384 bp fragment corresponding to MB-1 His gene. Plasmids were then sequenced by the dye-terminator method (Service d'analyse et de synthèse, Université Laval). Complete sequences were analysed with LFASTA software (Chao K. M. (1998), Comput. Appl. Biosci., 8:481-487), allowing for comparison of control and mutated DNA. Mutation rate and mutation types were calculated from such a comparison.

Taq DNA polymerase [3] = target: T3, Taq DNA polymerase (Thermus aquaticus, UniProt P19821); conditions: 0.5 mM MnCl2, Equimolar dNTPs
Protocol: as §3

Taq DNA polymerase [4] = target: T3, Taq DNA polymerase; assay type: biochemical
[5] = target: Deep Ventr (exo-) polymerase (Pyrococcus sp., UniProt Q51334, D141A/DEL493-1029/E143A); assay type: biochemical, Pyrococcus species GB-D
[6] = Ventr (exo-) polymerase, concentration leading to reduction in amplification yield
[7] = Taq, 0.5 mM MnCl2, Equimolar dNTPs
[8] = Ventr (exo-), 0.5 mM MnCl2, AG/CT = 1/4
[9] = Ventr (exo-), 0.5 mM MnCl2, AG/CT = 1/4, % of total mutations
[10] = Ventr (exo-), 0.5 mM MnCl2, AT/GC = 1/4
[11] = Ventr (exo-), 0.5 mM MnCl2, AT/GC = 1/4, % of total mutations
[12] = Ventr (exo-), 0.5 mM MnCl2, Equimolar dNTPs
[13] = Ventr (exo-), 0.5 mM MnCl2, Equimolar dNTPs, % of total mutations
[14] = Ventr (exo-), 0.5 mM MnCl2, Equimolar dNTPs, listed as manganese
[15] = Taq, 0.5 mM MnCl2, Equimolar dNTPs, % of total mutations
[16] = concentration leading to reduction in amplification yield
[17] = Taq polymerase, concentration leading to reduction in amplification yield

T2 sequence (P30317 other isoform, or with tags, fused parts or gaps D141A/E143A/DEL495-1032/DEL1082-1471): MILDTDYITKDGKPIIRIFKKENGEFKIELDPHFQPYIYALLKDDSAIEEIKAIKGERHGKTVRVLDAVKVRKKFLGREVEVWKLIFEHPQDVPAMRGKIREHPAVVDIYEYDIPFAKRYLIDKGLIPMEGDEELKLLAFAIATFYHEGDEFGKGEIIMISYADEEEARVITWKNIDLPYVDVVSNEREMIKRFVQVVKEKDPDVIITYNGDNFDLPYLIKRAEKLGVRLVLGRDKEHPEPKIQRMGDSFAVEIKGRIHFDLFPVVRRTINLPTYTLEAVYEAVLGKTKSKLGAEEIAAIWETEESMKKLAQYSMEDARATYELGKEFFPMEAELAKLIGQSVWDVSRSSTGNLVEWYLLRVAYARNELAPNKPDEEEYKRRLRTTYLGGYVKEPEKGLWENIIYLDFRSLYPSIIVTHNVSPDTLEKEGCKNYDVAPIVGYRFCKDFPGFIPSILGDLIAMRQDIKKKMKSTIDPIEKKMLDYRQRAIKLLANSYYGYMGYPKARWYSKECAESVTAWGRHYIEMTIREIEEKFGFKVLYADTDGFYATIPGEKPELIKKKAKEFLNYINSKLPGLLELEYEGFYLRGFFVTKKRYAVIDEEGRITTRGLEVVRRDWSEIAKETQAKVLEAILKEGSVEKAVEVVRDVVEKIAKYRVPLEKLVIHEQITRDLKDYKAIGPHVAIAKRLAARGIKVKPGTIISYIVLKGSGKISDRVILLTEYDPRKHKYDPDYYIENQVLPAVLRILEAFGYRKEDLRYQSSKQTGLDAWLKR
T1 sequence (P30317 other isoform, or with tags, fused parts or gaps D141A/E143A/DEL495-1032/DEL1082-1471): as above
Deep Ventr (exo-) polymerase, sequence (Q51334 other isoform, or with tags, fused parts or gaps D141A/E143A/DEL493-1029): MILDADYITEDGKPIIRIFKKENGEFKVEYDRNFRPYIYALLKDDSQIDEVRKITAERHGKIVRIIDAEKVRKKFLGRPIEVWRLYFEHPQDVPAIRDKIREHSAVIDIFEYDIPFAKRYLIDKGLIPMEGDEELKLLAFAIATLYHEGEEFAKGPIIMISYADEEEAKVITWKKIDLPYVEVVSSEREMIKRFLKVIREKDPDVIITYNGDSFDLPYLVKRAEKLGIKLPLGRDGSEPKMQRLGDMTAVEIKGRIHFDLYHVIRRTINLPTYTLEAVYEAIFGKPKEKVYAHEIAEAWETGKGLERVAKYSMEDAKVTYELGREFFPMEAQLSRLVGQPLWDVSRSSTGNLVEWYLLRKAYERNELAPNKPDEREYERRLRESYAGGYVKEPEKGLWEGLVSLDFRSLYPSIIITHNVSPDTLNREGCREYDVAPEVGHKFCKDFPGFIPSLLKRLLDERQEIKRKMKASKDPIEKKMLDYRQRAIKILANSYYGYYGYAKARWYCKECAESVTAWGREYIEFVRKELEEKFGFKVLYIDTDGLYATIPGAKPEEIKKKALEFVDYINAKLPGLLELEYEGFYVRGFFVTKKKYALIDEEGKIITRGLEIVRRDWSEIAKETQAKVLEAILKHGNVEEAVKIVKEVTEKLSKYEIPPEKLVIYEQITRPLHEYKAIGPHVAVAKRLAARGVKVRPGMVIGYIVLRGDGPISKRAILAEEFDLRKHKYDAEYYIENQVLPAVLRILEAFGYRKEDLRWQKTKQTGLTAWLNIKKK
T3 sequence (P19821 whole entry): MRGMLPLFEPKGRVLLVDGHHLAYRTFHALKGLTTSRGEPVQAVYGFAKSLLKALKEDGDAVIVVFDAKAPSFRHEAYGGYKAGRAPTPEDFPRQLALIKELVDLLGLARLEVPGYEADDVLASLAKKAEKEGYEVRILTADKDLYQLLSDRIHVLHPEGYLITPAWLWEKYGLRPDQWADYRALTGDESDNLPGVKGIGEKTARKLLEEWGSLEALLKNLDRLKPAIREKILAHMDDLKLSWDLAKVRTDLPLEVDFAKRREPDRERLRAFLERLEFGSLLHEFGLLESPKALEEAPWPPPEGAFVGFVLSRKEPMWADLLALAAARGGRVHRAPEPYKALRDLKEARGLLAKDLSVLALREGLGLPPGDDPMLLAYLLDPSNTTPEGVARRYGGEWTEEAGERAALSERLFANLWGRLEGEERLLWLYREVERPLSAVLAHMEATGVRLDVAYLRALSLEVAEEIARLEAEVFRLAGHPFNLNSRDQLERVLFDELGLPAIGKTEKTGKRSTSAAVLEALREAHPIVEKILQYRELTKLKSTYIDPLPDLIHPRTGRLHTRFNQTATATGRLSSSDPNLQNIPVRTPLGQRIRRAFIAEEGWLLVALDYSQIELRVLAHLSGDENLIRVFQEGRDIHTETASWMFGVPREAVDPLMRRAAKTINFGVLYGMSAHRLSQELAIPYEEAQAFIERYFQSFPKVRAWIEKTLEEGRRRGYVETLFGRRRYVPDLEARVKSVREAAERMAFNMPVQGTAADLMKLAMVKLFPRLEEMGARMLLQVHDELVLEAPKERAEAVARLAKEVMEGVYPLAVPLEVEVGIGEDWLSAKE
Taq polymerase, sequence (P19821 whole entry): as above

Compound: CC(C)O [Isopropanol]
- Critical concentration (Ventr (exo-) polymerase; [6]): 10.0 % v/v

Compound: manganese chloride [MnCl2]
- Maximal lenght of amplification ([1]; 0.5 mM MnCl2, AG/CT = 1/4): 0.8 kb
- Maximal lenght of amplification ([1]; 0.5 mM MnCl2, AT/GC = 1/4): 1.6 kb
- Maximal lenght of amplification ([1]; 0.5 mM MnCl2, Equimolar dNTPs): 0.8 kb
- Amplification yield (% of C+) (Taq polymerase; [7]): 75 % of C+
- Deletion Frequency [2, 8]: 0.03%
- Mutation Frequency [2, 8]: 2.30%
- Bias indicator A, T turns N [2, 9]: 30%
- Bias indicator G, C turns N [2, 9]: 67%
- Bias indicator N turns A, T [2, 9]: 73%
- Deletion Frequency [2, 10]: 0.00%
- Mutation Frequency [2, 10]: 0.52%
- Bias indicator A, T turns N [2, 11]: 88%
- Bias indicator G, C turns N [2, 11]: 12%
- Bias indicator N turns A, T [2, 11]: 25%
- Deletion Frequency [2, 12]: 0.00%
- Mutation Frequency [2, 12]: 3.70%
- Bias indicator A, T turns N [2, 13]: 23%
- Bias indicator G, C turns N [2, 13]: 77%
- Bias indicator N turns A, T [2, 13]: 83%
- Deletion Frequency [2, 14]: without insertion or deletion
- Mutation Frequency [2, 14]: 3.7%
- Maximal lenght of amplification (Taq DNA polymerase [3]): 0.4 kb
- Deletion Frequency (Taq DNA polymerase [4]; [7]): 0.04%
- Mutation Frequency (Taq DNA polymerase [4]; [7]): 8.48%
- Bias indicator A, T turns N (Taq DNA polymerase [4]; [15]): 72%
- Bias indicator G, C turns N (Taq DNA polymerase [4]; [15]): 24%
- Bias indicator N turns A, T (Taq DNA polymerase [4]; [15]): 43%
- Amplification yield (% of C+) (Ventr (exo-) polymerase; AG/CT = 1/4): 75 % of C+
- Amplification yield (% of C+) (Ventr (exo-) polymerase; AT/GC = 1/4): 75 % of C+
- Amplification yield (% of C+) (Ventr (exo-) polymerase; Equimolar dNTPs): 75 % of C+

Compound: CCCO [Propanol, 1-propanol]
- Critical concentration [5, 16]: 8.0 % v/v
- Amplification yield (% of C+) (Taq polymerase): 50 % of C+
- Critical concentration (Taq polymerase): 2.5 % v/v
- polymerisation activity (Taq polymerase): no polymerisation activity
- Bias indicator A, T turns N [2]: 25% and 24% and 14%
- Bias indicator G, C turns N [2]: 67% and 62% and 86%
- Bias indicator N turns A, T [2]: 67% and 71%
- Mutation Frequency [2]: 0.98% and 0.27% and 0.58%
- mutation of guanines and cytosines, of total mutations [2]: 67%
- Deletion Frequency (Taq DNA polymerase [4]): 0.04%
- Mutation Frequency (Taq DNA polymerase [4]): 0.13%
- mutations found (Taq DNA polymerase [4]): 3
- Critical concentration (Ventr (exo-) polymerase): 8.0 % v/v
- polymerisation activity (Ventr (exo-) polymerase): no polymerisation activity

Compound: Butanol
- Critical concentration [5, 16]: 6.0 % v/v
- Critical concentration (Taq polymerase; [17]): 1.0 % v/v
- Critical concentration (Ventr (exo-) polymerase; [6]): 4.0 % v/v

Compound: NC(N)=O [Urea]
- Critical concentration [5, 16]: 1.5 % v/v
- Critical concentration ([5]; in molar): (0.25 M)
- Critical concentration (Taq polymerase; [17]): 1.2 % v/v
- Critical concentration (Taq polymerase; Taq polymerase, in molar): (0.20 M)
- mutation detected in PCR ([2]; Ventr (exo-), critical concentration of urea, more than 2000 nucleotides sequenced): did not detect mutation
- mutation detected in PCR (Taq DNA polymerase [4]; Taq, critical concentration of urea, more than 2000 nucleotides sequenced): did not detect mutation
- Critical concentration (Ventr (exo-) polymerase; [6]): 1.5 % v/v
- Critical concentration (Ventr (exo-) polymerase; Ventr (exo-) polymerase, in molar): (0.25 M)
